Experiment [1] has as its system Bacillus subtilis. Description: Antibacterial activity against Bacillus subtilis 168 at 10 uM after 12 hrs relative to control. The format is functional.
Experiment [2] concerns Bacillus subtilis subsp. subtilis str. 168. Nature of the experiment: Copper chelating activity in Bacillus subtilis 168 assessed as reduction in cytochrome c oxidase activity by measuring increase in ROS level at 10 uM measured over 40 mins by H2DCFDA staining based fluorescence method relative to control.
Another experiment concerns the target Mushroom tyrosinase (Agaricus bisporus, UniProt O42713+Q00024+C7FF04+C7FF05). Description: Inhibition of mushroom tyrosinase using L-DOPA as substrate preincubated for 10 mins followed by substrate addition and measured after 15 mins by spectrophotometric method.
The test system of experiment [3] is Bacillus subtilis. Nature of the experiment: microbe, parasite or virus in culture. The settings on record: subsp. subtilis str. 168, 12 h.
Description: Antibacterial activity against Bacillus subtilis 168 after 12 hrs
A further experiment deals with Staphylococcus aureus. Description: Antibacterial activity against Staphylococcus aureus ATCC 43300 at 10 uM after 12 hrs relative to control. The format is functional.
Another experiment deals with Escherichia coli. Description: Antibacterial activity against Escherichia coli BL21 at 10 uM after 12 hrs relative to control. The format is functional.
Experiment [4] deals with Bacillus subtilis. Nature of the experiment: Antibacterial activity against Bacillus subtilis 168 in presence of Fe3+ by paper disk assay. The format is functional, organism-based. The note with it: subsp. subtilis str. 168.
The test system of a further experiment is Klebsiella pneumoniae. Description: Antibacterial activity against Klebsiella pneumoniae CMCC 46117 at 10 uM after 12 hrs relative to control. Type of experiment: functional.
Experiment [5] deals with Acinetobacter baumannii ATCC 19606 = CIP 70.34 = JCM 6841. Nature of the experiment: Copper chelating activity in Acinetobacter baumannii ATCC 19606 assessed as increase in ROS level at 10 uM measured over 40 mins by H2DCFDA staining based fluorescence method.
In the next experiment the test system is Pseudomonas aeruginosa. Nature of the experiment: Antibacterial activity against Pseudomonas aeruginosa ATCC 27853 at 10 uM after 12 hrs relative to control. The format is functional.
Another experiment has as its system Enterococcus faecalis. Description: Antibacterial activity against Enterococcus faecalis ATCC 29212 at 10 uM after 12 hrs relative to control. The format is functional.
Experiment [6] deals with Bacillus subtilis. Nature of the experiment: Antibacterial activity against Bacillus subtilis 168 in presence of CuCl2 by paper disk assay. The format is functional, organism-based. The note with it: subsp. subtilis str. 168.
In experiment [7] the test system is Bacillus subtilis subsp. subtilis str. 168. Description: Copper chelating activity in Bacillus subtilis 168 assessed as reduction in cellular copper content at 100 uM incubated for 1 hr by ICP-MS analysis relative to control. The arrangement: scale not given: the % may be the effect or the level left.
For experiment [8], the system named is Bacillus subtilis. Nature of the experiment: Antibacterial activity against Bacillus subtilis 168 assessed as inhibition rate at 100 uM after 12 hrs relative to control. Type of experiment: functional. The settings on record: subsp. subtilis str. 168, 12 h.
The test system of another experiment is Acinetobacter baumannii. Description: Antibacterial activity against Acinetobacter baumannii ATCC 19606 at 10 uM after 12 hrs relative to control. Type of experiment: functional, ATCC 19606 = CIP 70.34 = JCM 6841.
Experiment [9] relates to Bacillus subtilis subsp. subtilis str. 168. Nature of the experiment: Copper chelating activity in Bacillus subtilis 168 assessed as reduction in cytochrome c oxidase activity by measuring decrease in intracellular ATP level at 10 uM incubated for 15 to 90 mins by bioluminescence method relative to control. Type of experiment: cell-based. The arrangement: scale not given: the % may be the effect or the level left.

Experiment [10] has as its system Bacillus subtilis. Nature of the experiment: Antibacterial activity against Bacillus subtilis 168 in presence of Fe2+ by paper disk assay. The format is functional, organism-based. The settings on record: subsp. subtilis str. 168.
Setting [11] is: Bacillus subtilis subsp. subtilis str. 168.

13 compounds from ChEMBL document CHEMBL4616656, “Diisonitrile-Mediated Reactive Oxygen Species Accumulation Leads to Bacterial Growth Inhibition” (J Nat Prod, 2020) can be followed below.

Usually IC50 stands for the concentration at which inhibition is half-maximal. One may read the inhibition as how much of the control response was suppressed.

Active and inactive are the calls of the source. The calls are words filed in the database; no cut-off is given here.

For the compound `C[C@H](CC(=O)NC[C@@H]1CC[C@H](NC(=O)C[C@@H](C)NC=O)C(O)O1)NC=O` (stereo partly specified), the outcome (with Bacillus subtilis [1] (setting [11]); in experiment [2]) was inactive.
In the case of `CC(=O)OC[C@H](CCCCNC(=O)C[C@@H](C)C#N)NC(=O)C[C@@H](C)C#N`, the outcome (in the experiment with Bacillus subtilis [1] (setting [11]); in experiment [2]) was Active. Moreover, at Mushroom tyrosinase, the IC50 was found to be 89.6 µM.
With `C[C@@H](C#N)CC(=O)NCCCC[C@@H](CO)NC(=O)C[C@@H](C)C#N`, the outcome (in the experiment with Bacillus subtilis [1] (setting [11]); in experiment [2]) was Active. This compound showed an IC50 against Mushroom tyrosinase of 89.6 µM.
On to `CC(C)=CCC(=O)NC[C@@H]1CC[C@H](NC(=O)C[C@@H](C)C#N)C(O)O1` (stereo partly specified), for which the result (with Bacillus subtilis [1] (setting [11]); in experiment [2]) was inactive.
For the compound `C[C@H](CC(=O)N[C@H]1CC[C@@H](CNC(=O)C[C@@H](C)C#N)OC1O)NC=O` (stereo partly specified), the outcome (with Bacillus subtilis [1] (setting [11]); in experiment [2]) was inactive.
`COc1cc(Cc2cnc(N)nc2N)cc(OC)c1OC` [TRIMETHOPRIM] returned an IC50 with Bacillus subtilis [3] of 0.3 µM.
On to `C[C@H](CC(=O)NCCCC[C@@H](CO)NC(=O)C[C@@H](C)C#N)NC=O`, for which the result (in the experiment with Bacillus subtilis [1] (setting [11]); in [2]) was inactive.
For `C[C@H](CC(=O)NCCCC[C@@H](CO)NC(=O)C[C@@H](C)NC=O)NC=O`, the result (in the experiment with Bacillus subtilis [1] (setting [11]); in experiment [2]) was inactive.
As to `C[C@H](CC(=O)N[C@H](CO)CCCCNC(=O)C[C@@H](C)C#N)NC=O`, the result (in the experiment with Bacillus subtilis [1] (setting [11]); in experiment [2]) was inactive.
Take `CC(C)CCC(=O)NC[C@@H]1CC[C@H](NC(=O)C[C@@H](C)C#N)C(O)O1` (stereo partly specified): the outcome (in the experiment with Bacillus subtilis [1] (setting [11]); in experiment [2]) was inactive.
Regarding `CC(=O)OC[C@H](CCCCNC(=O)C[C@@H](C)NC=O)NC(=O)C[C@@H](C)NC=O`, the result (in the experiment with Bacillus subtilis [1] (setting [11]); in experiment [2]) was inactive.
Regarding `CC(C)CC(=O)NC[C@@H]1CC[C@H](NC(=O)CC(C)C)C(O)O1` (stereo partly specified), the result (in the experiment with Bacillus subtilis [1] (setting [11]); in experiment [2]) was inactive.
Consider `CC(C#N)CC(=O)NC[C@@H]1CC[C@H](NC(=O)C[C@@H](C)C#N)C(O)O1` (stereo partly specified), for which the Activity with Staphylococcus aureus is 20 - 30%; in the experiment on Escherichia coli, 20 - 30%; in the experiment on Klebsiella pneumoniae, 20 - 30%; in the experiment with Pseudomonas aeruginosa, 20 - 30%; in the experiment with Enterococcus faecalis, 20 - 30%; in experiment [7], 24%. Besides, the Activity in the experiment on Bacillus subtilis [1] was determined as 50%; in the experiment with Acinetobacter baumannii it was 57%; in [9] it was 20%. Besides, the result (in the experiment with Bacillus subtilis [4]; in experiment [5]; with Bacillus subtilis [10]) was Active. Besides, the outcome in the experiment with Bacillus subtilis [6] was inactive. In addition, in experiment [2], the fold change (FC) is 9. For the same compound, the inhibition at 100 µM in the experiment with Bacillus subtilis [8] was 56 to 60%. The compound further gave an IC50 against Mushroom tyrosinase of 89.6 µM.
